Laboratory results taken from PubChem BioAssay (NCI).
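Five compound concentrations were applied to cells in 96-well plates for 48 hours; endpoints were derived by simple linear interpolation of the resulting dose-response curve. GI50 = concentration required for 50% inhibition of growth. At the TGI there is no net growth.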

Tests used:
Test in all cases: DTP human tumour cell line panel, 48 h
HT29 colon = system: HT29 colon
RPMI-8226 leukemia = system: RPMI-8226 leukemia
MCF7 breast = system: MCF7 breast
LOX IMVI melanoma = system: LOX IMVI melanoma
OVCAR-5 ovarian = system: OVCAR-5 ovarian
MDA-MB-231 breast = system: MDA-MB-231 breast
NCI-H226 lung = system: NCI-H226 lung
BT-549 breast = system: BT-549 breast
ACHN renal = system: ACHN renal
NCI-H460 lung = system: NCI-H460 lung
T-47D breast = system: T-47D breast
MOLT-4 leukemia = system: MOLT-4 leukemia
MDA-N = system: MDA-N
SF-539 CNS = system: SF-539 CNS

SMILES | TGI (HT29 colon) | TGI (RPMI-8226 leukemia) | TGI (MCF7 breast) | TGI (LOX IMVI melanoma) | TGI (OVCAR-5 ovarian) | TGI (MDA-MB-231 breast) | TGI (NCI-H226 lung) | TGI (BT-549 breast) | TGI (ACHN renal) | TGI (NCI-H460 lung) | TGI (T-47D breast) | TGI (MOLT-4 leukemia) | TGI (MDA-N) | TGI (SF-539 CNS) | GI50 (OVCAR-5 ovarian) | GI50 (MDA-MB-231 breast) | GI50 (SF-539 CNS) | GI50 (BT-549 breast) | GI50 (ACHN renal)
N=C(N)C(N=Nc1ccccc1)C(N)=O (stereo not drawn) | > 100 µM | > 100 µM | > 100 µM | > 100 µM | > 100 µM | > 100 µM | > 100 µM | > 100 µM | > 100 µM | > 100 µM | > 100 µM | > 100 µM | > 100 µM |  |  |  |  |  | 
CCCCNc1c(CN)cnc2cc(Cl)ccc12 | 37 µM | 37 µM | 27.6 µM | 29.9 µM | 35.5 µM | 30 µM | 32.6 µM | 31.8 µM | 58.7 µM | 25.8 µM | 44.3 µM | 36.5 µM | 39.3 µM |  |  |  |  |  | 
CN(C)CCCNc1ncnc2nc[nH]c12 | > 100 µM | > 100 µM | > 100 µM | > 100 µM | > 100 µM | > 100 µM | > 100 µM | > 100 µM | > 100 µM | > 100 µM | > 100 µM | > 100 µM | > 100 µM |  |  |  |  |  | 
O=c1[nH]/c(=C/c2ccc(OCc3ccccc3)cn2)c(=O)[nH]/c1=C/c1ccc(Cl)cc1 | > 100 µM | > 100 µM | > 100 µM | > 100 µM | > 100 µM | > 100 µM | > 100 µM | > 100 µM | > 100 µM | > 100 µM | > 100 µM | > 100 µM | 0.723 µM | > 100 µM |  |  |  |  | 
NC(=O)NO | > 2440 µM | 2260 µM | > 2460 µM | > 2430 µM | 1990 µM | > 1410 µM | 2120 µM | > 2500 µM | 2060 µM | 2040 µM | > 2500 µM | 2100 µM | > 2500 µM | 1440 µM |  |  |  |  | 
O=C(N/N=C/c1ccc([N+](=O)[O-])cc1)c1cccc2nc3ccccc3nc12 | > 100 µM | > 100 µM | > 100 µM | > 100 µM | > 100 µM | > 100 µM | > 100 µM | > 100 µM | > 73.8 µM | > 64.4 µM | > 100 µM | > 100 µM | > 100 µM | > 65.6 µM |  |  |  |  | 
Cc1ccc2cc3c(ccc4ccccc43)c3c2c1CC3 | > 100 µM | > 100 µM | > 18.3 µM | > 100 µM | > 100 µM | > 100 µM | > 100 µM | > 100 µM | > 100 µM | > 100 µM | > 100 µM | > 100 µM | > 100 µM | > 100 µM | > 100 µM |  |  |  | 
C=CC(=O)N1CCN(c2nc(OC[C@@H]3CCCN3C)nc3c2CCN(c2cccc4cccc(C)c24)C3)C[C@@H]1CC#N |  |  |  |  | 3.26 µM | 2.78 µM |  | 3.08 µM | 2.14 µM |  |  |  |  | 3.04 µM | 1.58 µM | 1.39 µM | 1.63 µM | 1.58 µM | 0.953 µM
CC(=O)Oc1ccc2c(C)cc(=O)oc2c1 | > 100 µM | > 100 µM | > 100 µM | > 100 µM | > 100 µM | > 100 µM | > 100 µM | > 100 µM | > 100 µM | > 100 µM | > 100 µM | > 100 µM | > 100 µM | > 100 µM |  |  |  |  | 
COc1cc2nc(-c3cccs3)nc(N3C(c4ccc(O)cc4)=NNC(=O)c4ccccc43)c2cc1OC | 67.9 µM | 47.9 µM | > 100 µM | 54.6 µM | 84.2 µM | 42.6 µM | 41.4 µM | 42.8 µM | 55 µM | 82.1 µM | > 100 µM |  |  | 23.6 µM |  |  |  |  | 
Nc1ccc(C2NC(=O)Cc3c2ccc2ccccc32)cc1 (stereo not drawn) | > 100 µM | > 100 µM | > 100 µM | > 100 µM | > 100 µM |  | > 100 µM |  | > 100 µM | > 100 µM | > 100 µM | > 100 µM | > 100 µM | > 100 µM |  |  |  |  | 
COc1ccc(C2C(=O)C(Cl)N2Nc2nc(C)cc(=O)[nH]2)cc1OC (stereo not drawn) | > 100 µM | 55.9 µM |  | > 100 µM | > 100 µM |  |  |  | > 100 µM | > 100 µM |  | > 100 µM |  | 85.5 µM |  |  |  |  | 
O=C(O)CSCC(=O)O | > 100 µM |  |  | > 100 µM | > 100 µM | > 100 µM | > 100 µM | > 100 µM | > 100 µM | > 100 µM |  | > 100 µM | > 100 µM |  |  |  |  |  | 
CCOC(=O)c1sc2nc(SC)nc3c2c1NCN3c1ccc2c(c1)OCCCO2 |  | > 100 µM | > 100 µM | > 100 µM | > 100 µM | > 100 µM | > 100 µM | > 100 µM | > 100 µM | > 100 µM | > 100 µM | > 100 µM | > 100 µM | 53.9 µM |  |  |  |  | 
O=C(O)C(O)Cc1ccccn1 (stereo not drawn) | > 100 µM | > 100 µM | > 100 µM | > 100 µM | > 100 µM | > 100 µM | > 100 µM | > 100 µM | > 100 µM | > 100 µM | > 100 µM |  |  |  |  |  |  |  | 
C(=C\c1nccs1)/c1cccc(/C=C/c2nccs2)n1 | > 50 µM | > 50 µM | > 50 µM | > 50 µM | > 50 µM | > 50 µM | > 50 µM | > 50 µM | > 50 µM | > 50 µM | > 50 µM | > 50 µM | > 50 µM | > 50 µM |  |  |  |  | 
CC(=O)OC1COC(n2nc(/C=C/c3ccc(Cl)cc3)c(=O)n(/N=C/c3ccccc3)c2=S)C(OC(C)=O)C1OC(C)=O (stereo not drawn) | > 100 µM | > 100 µM | > 100 µM | > 100 µM | > 100 µM | > 100 µM | > 100 µM | > 100 µM | > 100 µM | > 100 µM | > 100 µM | > 100 µM | > 100 µM | > 100 µM |  |  |  |  | 
FC(F)(F)C(C1=NC(C(F)(F)F)(C(F)(F)F)N=C(N2CCOCC2)O1)C(F)(F)F | 57.8 µM | 57.7 µM |  | 63.8 µM | 46.4 µM | 36.1 µM |  | 56 µM | 49.3 µM | > 100 µM | 89.4 µM | > 100 µM | 53.8 µM | 97.3 µM |  |  |  |  | 
COc1ccc2oc(=O)cc(C)c2c1 | > 100 µM | > 100 µM | > 100 µM | > 100 µM | > 100 µM | > 100 µM | > 100 µM | > 100 µM | > 100 µM | > 100 µM | > 100 µM | > 100 µM | > 100 µM | > 100 µM |  |  |  |  | 
Cc1nc(Nc2ccc(F)cc2)c2sc(=S)n(-c3ccc(F)cc3)c2n1 | 19.9 µM | 21.9 µM | 18.7 µM | 17 µM | 36.3 µM | 26.9 µM | 33.5 µM | 27.1 µM | 27 µM | 28.8 µM | 19.8 µM |  |  |  |  |  |  |  | 
COc1ccc(C2C3CCc4ccccc4C3=NN2S(=O)(=O)c2ccc(Cl)cc2)cc1 (stereo not drawn) | 63.3 µM | 51.3 µM | 34.8 µM | > 100 µM | > 100 µM | > 100 µM | > 100 µM | > 100 µM | 69.2 µM | > 100 µM | > 100 µM | > 100 µM | 9.19 µM | 39.1 µM |  |  |  |  | 
C=CCOC1OC(CS(=O)(=O)O)C(O)C(O)C1O (stereo not drawn) | > 100 µM | > 100 µM | > 100 µM | > 100 µM | > 100 µM | > 100 µM | > 100 µM | > 100 µM |  | > 100 µM | > 100 µM | > 100 µM | > 100 µM |  |  |  |  |  | 
COc1cccc(Nc2nc(-c3cccs3)nc3ccc(Br)cc23)c1 | > 100 µM | > 100 µM | 63.8 µM | > 100 µM | > 100 µM | > 100 µM | > 100 µM | > 100 µM | > 100 µM | > 100 µM | > 100 µM |  |  | > 100 µM |  |  |  |  | 
O=C(c1ccccc1)[C@H]1Nc2ccc(Cl)cc2[C@H]2OCCC[C@@H]12 | 35.3 µM | 57.7 µM |  | 31.2 µM | 35.3 µM |  | 47.7 µM |  | 93.5 µM | 34.5 µM |  | 61.7 µM |  |  |  |  |  |  | 
COc1ccccc1N1C(Cl)C(=O)C1c1c[nH]c2ccccc12 (stereo not drawn) | > 100 µM | > 100 µM |  |  | > 100 µM |  |  |  |  | > 100 µM |  | > 100 µM |  | > 100 µM |  |  |  |  | 
